According to US20240294541A1, “COMPOUNDS CONSTITUTING C20-MODIFIED SALINOMYCIN DERIVATIVES, A METHOD FOR OBTAINING THE SAME, A COMPOSITION CONTAINING THE SAME AND A USE OF SAID COMPOUNDS” (FILECLO SPOLKA Z OGRANICZONA ODPOWIEDZIALNOSCIA, priority 2021, published 2024):

How the values were obtained:
Assay type in all cases: cell-based
[1] = tested on: A2780Cis (cisplatin-resistant human ovarian cancer); assay: In vitro cytotoxicity, SRB assay, A2780Cis; conditions: for IC50: Homo sapiens, A2780cis, read-out: IC50 (nM) A2780Cis
[2] = tested on: Hs294T (human melanoma); assay: cells; conditions: Table 4; for IC50: Hs 294T, Hs294T human melanoma cells, read-out: IC50 (nM) Hs294T; for SI Hs294T: selectivity coefficient vs normal BALB/3T3 fibroblasts
[3] = tested on: PLC/PRF/5 (human liver cancer); assay: cells; conditions: Table 4; for IC50: PLC/PRF/5 human liver cancer cells, read-out: IC50 (nM) PLC/PRF/5; for SI PLC/PRF/5: selectivity coefficient vs normal BALB/3T3 fibroblasts
[4] = tested on: SNU-16 (human gastric cancer); assay: cells; conditions: Table 4; for IC50: SNU-16 human gastric cancer cells, read-out: IC50 (nM) SNU-16; for SI SNU-16: selectivity coefficient vs normal BALB/3T3 fibroblasts
[5] = tested on: MIA PaCa-2 (human pancreatic cancer); assay: cells; conditions: Table 4; for IC50: MIA PaCa-2 human pancreatic cancer cells, read-out: IC50 (nM) MIA PaCa-2; for SI MIA PaCa-2: selectivity coefficient vs normal BALB/3T3 fibroblasts
[6] = tested on: BALB/3T3 (normal mouse fibroblasts); assay: In vitro cytotoxicity, SRB assay, normal BALB/3T3 fibroblasts; conditions: Table 4; BALB/3T3 normal mouse fibroblasts; read-out: IC50 (nM) BALB3T3 normal cells
[7] = tested on: MV-4-11 (human biphenotypic leukaemia); assay: In vitro cytotoxicity, MTT assay, MV-4-11; conditions: for IC50: Homo sapiens, MV4-11, read-out: IC50 (nM) MV4-11
[8] = tested on: NCI-H358 (human lung cancer); assay: cells; conditions: Table 4; for IC50: NCI-H358 human lung cancer cells, read-out: IC50 (nM) NCI-H358; for SI NCI-H358: selectivity coefficient vs normal BALB/3T3 fibroblasts

CC[C@@H](C(=O)[C@@H](C)[C@@H](O)[C@H](C)[C@@H]1O[C@@H]([C@@H](CC)C(=O)O)CC[C@@H]1C)[C@H]1O[C@]2(C=C[C@@H](NC(=O)C(=O)NCC3CC3)[C@]3(CC[C@@](C)([C@H]4CC[C@](O)(CC)[C@H](C)O4)O3)O2)[C@H](C)C[C@@H]1C [FLC-00442-1•Na]
SI A2780Cis [1]: 32.3 | IC50 [1]: 23.3 nM | IC50 [2]: 1710 nM | SI Hs294T [2]: 0.4 | IC50 [3]: 53.9 nM | SI PLC/PRF/5 [3]: 14.0 | IC50 [4]: 1120 nM | SI SNU-16 [4]: 0.7 | IC50 [5]: 102 nM | SI MIA PaCa-2 [5]: 7.4 | IC50 [6]: 754 nM | SI MV4-11 [7]: 38.9 | IC50 [7]: 19.4 nM | IC50 [8]: 340 nM | SI NCI-H358 [8]: 2.22

CC[C@@H](C(=O)[C@@H](C)[C@@H](O)[C@H](C)[C@@H]1O[C@@H]([C@@H](CC)C(=O)O)CC[C@@H]1C)[C@H]1O[C@]2(C=C[C@@H](NC(=O)C(=O)NC)[C@]3(CC[C@@](C)([C@H]4CC[C@](O)(CC)[C@H](C)O4)O3)O2)[C@H](C)C[C@@H]1C [FLC-00443-1•Na]
SI A2780Cis [1]: 23.3 | IC50 [1]: 176 nM | IC50 [2]: 3970 nM | SI Hs294T [2]: 1.0 | IC50 [3]: 477 nM | SI PLC/PRF/5 [3]: 8.6 | IC50 [4]: 6190 nM | SI SNU-16 [4]: 0.7 | IC50 [5]: 554 nM | SI MIA PaCa-2 [5]: 7.4 | IC50 [6]: 4110 nM | SI MV4-11 [7]: 23.4 | IC50 [7]: 175 nM | IC50 [8]: 2620 nM | SI NCI-H358 [8]: 1.57

CC[C@@H](C(=O)[C@@H](C)[C@@H](O)[C@H](C)[C@@H]1O[C@@H]([C@@H](CC)C(=O)O)CC[C@@H]1C)[C@H]1O[C@]2(C=C[C@@H](NC(=O)OCCCCCCCl)[C@]3(CC[C@@](C)([C@H]4CC[C@](O)(CC)[C@H](C)O4)O3)O2)[C@H](C)C[C@@H]1C [FLC-00444-1•Na]
SI A2780Cis [1]: 98.9 | IC50 [1]: 1.5 nM | IC50 [2]: 627 nM | SI Hs294T [2]: 0.2 | IC50 [3]: 4 nM | SI PLC/PRF/5 [3]: 36.9 | IC50 [4]: 105 nM | SI SNU-16 [4]: 1.4 | IC50 [5]: 21.3 nM | SI MIA PaCa-2 [5]: 6.9 | IC50 [6]: 148 nM | SI MV4-11 [7]: 98.9 | IC50 [7]: 1.5 nM | IC50 [8]: 53.7 nM | SI NCI-H358 [8]: 2.75

CC[C@@H](C(=O)[C@@H](C)[C@@H](O)[C@H](C)[C@@H]1O[C@@H]([C@@H](CC)C(=O)O)CC[C@@H]1C)[C@H]1O[C@]2(C=C[C@@H](NC(=O)OCCOCc3ccccc3)[C@]3(CC[C@@](C)([C@H]4CC[C@](O)(CC)[C@H](C)O4)O3)O2)[C@H](C)C[C@@H]1C [FLC-00451-1•Na]
SI A2780Cis [1]: 96.0 | IC50 [1]: 2.13 nM | IC50 [2]: 542 nM | SI Hs294T [2]: 0.4 | IC50 [3]: 42 nM | SI PLC/PRF/5 [3]: 4.9 | IC50 [4]: 126 nM | SI SNU-16 [4]: 1.6 | IC50 [5]: 14.7 nM | SI MIA PaCa-2 [5]: 13.9 | IC50 [6]: 204 nM | SI MV4-11 [7]: 127.9 | IC50 [7]: 1.6 nM | IC50 [8]: 307 nM | SI NCI-H358 [8]: 0.67

CC[C@@H](C(=O)[C@@H](C)[C@@H](O)[C@H](C)[C@@H]1O[C@@H]([C@@H](CC)C(=O)O)CC[C@@H]1C)[C@H]1O[C@]2(C=C[C@@H](NC(=O)OCCOCCCl)[C@]3(CC[C@@](C)([C@H]4CC[C@](O)(CC)[C@H](C)O4)O3)O2)[C@H](C)C[C@@H]1C [FLC-00454-1•Na]
SI A2780Cis [1]: 58.9 | IC50 [1]: 5.32 nM | IC50 [2]: 1040 nM | SI Hs294T [2]: 0.3 | IC50 [3]: 63.1 nM | SI PLC/PRF/5 [3]: 5.0 | IC50 [4]: 103 nM | SI SNU-16 [4]: 3.0 | IC50 [5]: 45.2 nM | SI MIA PaCa-2 [5]: 6.9 | IC50 [6]: 313 nM | SI MV4-11 [7]: 17.8 | IC50 [7]: 17.6 nM | IC50 [8]: 434 nM | SI NCI-H358 [8]: 0.72

CC[C@@H](C(=O)[C@@H](C)[C@@H](O)[C@H](C)[C@@H]1O[C@@H]([C@@H](CC)C(=O)O)CC[C@@H]1C)[C@H]1O[C@]2(C=C[C@@H](NC(=O)C3CCCC3)[C@]3(CC[C@@](C)([C@H]4CC[C@](O)(CC)[C@H](C)O4)O3)O2)[C@H](C)C[C@@H]1C [FLC-00455-1•Na]
SI A2780Cis [1]: 232.6 | IC50 [1]: 1.39 nM | IC50 [2]: 140 nM | SI Hs294T [2]: 2.3 | IC50 [3]: 60.7 nM | SI PLC/PRF/5 [3]: 5.3 | IC50 [4]: 165 nM | SI SNU-16 [4]: 2.0 | IC50 [5]: 33 nM | SI MIA PaCa-2 [5]: 9.8 | IC50 [6]: 323 nM | SI MV4-11 [7]: 112.3 | IC50 [7]: 2.87 nM | IC50 [8]: 54.5 nM | SI NCI-H358 [8]: 5.91

CC[C@@H](C(=O)[C@@H](C)[C@@H](O)[C@H](C)[C@@H]1O[C@@H]([C@@H](CC)C(=O)O)CC[C@@H]1C)[C@H]1O[C@]2(C=C[C@@H](NC(=O)C(=O)NCCCc3ccccc3)[C@]3(CC[C@@](C)([C@H]4CC[C@](O)(CC)[C@H](C)O4)O3)O2)[C@H](C)C[C@@H]1C [FLC-00458-1•Na]
SI A2780Cis [1]: 29.6 | IC50 [1]: 24.5 nM | IC50 [2]: 1590 nM | SI Hs294T [2]: 0.5 | IC50 [3]: 84.4 nM | SI PLC/PRF/5 [3]: 8.6 | IC50 [4]: 323 nM | SI SNU-16 [4]: 2.2 | IC50 [5]: 61.9 nM | SI MIA PaCa-2 [5]: 11.7 | IC50 [6]: 727 nM | SI MV4-11 [7]: 31.3 | IC50 [7]: 23.2 nM | IC50 [8]: 368 nM | SI NCI-H358 [8]: 1.97

CC[C@@H](C(=O)[C@@H](C)[C@@H](O)[C@H](C)[C@@H]1O[C@@H]([C@@H](CC)C(=O)O)CC[C@@H]1C)[C@H]1O[C@]2(C=C[C@@H](NC(=O)OCCOC)[C@]3(CC[C@@](C)([C@H]4CC[C@](O)(CC)[C@H](C)O4)O3)O2)[C@H](C)C[C@@H]1C [FLC-00459-1•Na]
SI A2780Cis [1]: 30.7 | IC50 [1]: 34.7 nM | IC50 [2]: 786 nM | SI Hs294T [2]: 1.4 | IC50 [3]: 92.2 nM | SI PLC/PRF/5 [3]: 11.6 | IC50 [4]: 535 nM | SI SNU-16 [4]: 2.0 | IC50 [5]: 78.3 nM | SI MIA PaCa-2 [5]: 13.6 | IC50 [6]: 1070 nM | SI MV4-11 [7]: 31.8 | IC50 [7]: 33.6 nM | IC50 [8]: 531 nM | SI NCI-H358 [8]: 2.01

CC[C@@H](C(=O)[C@@H](C)[C@@H](O)[C@H](C)[C@@H]1O[C@@H]([C@@H](CC)C(=O)O)CC[C@@H]1C)[C@H]1O[C@]2(C=C[C@@H](NC(=O)OCCOc3ccccc3)[C@]3(CC[C@@](C)([C@H]4CC[C@](O)(CC)[C@H](C)O4)O3)O2)[C@H](C)C[C@@H]1C [FLC-00460-1•Na]
SI A2780Cis [1]: 94.4 | IC50 [1]: 0.98 nM | IC50 [2]: 309 nM | SI Hs294T [2]: 0.3 | IC50 [3]: 17.6 nM | SI PLC/PRF/5 [3]: 5.3 | IC50 [4]: 130 nM | SI SNU-16 [4]: 0.7 | IC50 [5]: 13.6 nM | SI MIA PaCa-2 [5]: 6.8 | IC50 [6]: 92.8 nM | SI MV4-11 [7]: 50.0 | IC50 [7]: 1.86 nM | IC50 [8]: 282 nM | SI NCI-H358 [8]: 0.33
